Test results as given in paper PMC6968383, “Design, synthesis, in vitro and in vivo evaluation of benzylpiperidine-linked 1,3-dimethylbenzimidazolinones as cholinesterase inhibitors against Alzheimer’s disease” (Journal of Enzyme Inhibition and Medicinal Chemistry, 2019).

Legend:
[1] = biological target: T1, eeAChE (Electrophorus electricus, UniProt O42275); test: Kinetic study of AChE inhibition (Lineweaver–Burk); type: biochemical; details: Lineweaver–Burk plot, 0, 2, 5, 10, 20 µM
T1 construct: purchased Sigma-Aldrich
T1 sequence (O42275 24-633): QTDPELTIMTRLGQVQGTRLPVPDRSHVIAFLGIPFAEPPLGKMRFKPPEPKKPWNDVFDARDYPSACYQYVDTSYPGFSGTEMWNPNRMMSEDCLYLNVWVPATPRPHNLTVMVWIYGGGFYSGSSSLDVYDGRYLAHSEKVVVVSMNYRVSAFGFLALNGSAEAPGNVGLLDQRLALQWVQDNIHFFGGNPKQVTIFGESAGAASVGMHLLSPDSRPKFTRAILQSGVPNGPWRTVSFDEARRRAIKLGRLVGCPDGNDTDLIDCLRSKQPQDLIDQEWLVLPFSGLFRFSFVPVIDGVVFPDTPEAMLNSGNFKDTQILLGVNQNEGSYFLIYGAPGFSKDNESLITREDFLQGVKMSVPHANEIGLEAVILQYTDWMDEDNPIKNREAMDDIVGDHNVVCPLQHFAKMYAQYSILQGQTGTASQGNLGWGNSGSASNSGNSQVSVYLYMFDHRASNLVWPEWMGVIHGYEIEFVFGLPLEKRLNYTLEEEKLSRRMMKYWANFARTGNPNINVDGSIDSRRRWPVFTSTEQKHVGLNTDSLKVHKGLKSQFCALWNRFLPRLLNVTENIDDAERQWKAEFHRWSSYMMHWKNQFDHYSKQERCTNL
Method: In each case, the kinetic type of enzyme inhibition was obtained through the modified Ellman’s method and Lineweaver–Burk secondary plots.
Figure 2. […] (B) Lineweaver–Burk plot for the inhibition of eqBChE by compound 15j at different concentrations of substrate.
Kinetic studies were performed in the same manner as the determination of ChEs inhibition, while the substrate (ATC/BTC) was used in concentrations of 90, 150, 226, 452, and 904 µM. The concentrations of test compounds were set to 0, 2, 5, 10, and 20 µM for 15b and 0, 0.5, 1, 2, and 5 µM for 15j. The enzymatic reaction was extended to 7 min for eeAChE and eqBuChE before the determination of the absorption. Vmax and Km values of the Michaelis–Menten kinetics were calculated by nonlinear regression from substrate-velocity curves using GraphPad Prism 6.0. Linear regression was used for fitting the Lineweaver–Burk plots.

[2] = biological target: T2, BChE (EC 3.1.1.8) from horse serum (Equus caballus, UniProt P81908); test: biochemical; details: eqBChE; mean ± SEM of triplicate independent experiments; read-out: BChE IC50
T2 construct: horse serum BChE (eqBChE, Sigma-Aldrich); purchased Sigma-Aldrich; host or cells: horse serum
T2 sequence (P81908 whole entry): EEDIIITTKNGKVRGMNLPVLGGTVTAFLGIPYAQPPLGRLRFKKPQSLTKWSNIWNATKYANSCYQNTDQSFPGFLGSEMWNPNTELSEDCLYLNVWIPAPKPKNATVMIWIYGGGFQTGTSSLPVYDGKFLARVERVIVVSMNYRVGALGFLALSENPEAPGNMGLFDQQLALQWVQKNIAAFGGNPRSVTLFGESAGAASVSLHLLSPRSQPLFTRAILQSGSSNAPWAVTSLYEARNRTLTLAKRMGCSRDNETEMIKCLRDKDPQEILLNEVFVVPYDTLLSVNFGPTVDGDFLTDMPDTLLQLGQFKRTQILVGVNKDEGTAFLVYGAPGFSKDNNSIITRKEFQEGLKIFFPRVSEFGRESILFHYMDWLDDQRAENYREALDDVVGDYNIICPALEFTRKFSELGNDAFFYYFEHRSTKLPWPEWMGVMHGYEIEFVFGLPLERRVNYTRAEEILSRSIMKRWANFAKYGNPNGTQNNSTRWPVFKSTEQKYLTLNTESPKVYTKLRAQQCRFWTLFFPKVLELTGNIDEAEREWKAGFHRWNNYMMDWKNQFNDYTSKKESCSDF
Method: (§1) The data were expressed as IC50 values (Table 1).
(§2) The inhibitory activities of the target compounds towards AChE (from Electrophorus electricus (electric eeAChE, Sigma-Aldrich) and horse serum BChE (eqBChE, Sigma-Aldrich) or human AChE – huAChE; human BuChE – huBuChE (huAChE, huBuChE, Sigma-Aldrich) were measured by Ellman’s method. In 96-well plates, a mixture of phosphate buffer (0.1 M, pH 8.0, […]), 5,5′-dithiobis-2-nitrobenzoic acid (DTNB, 60 µL), acetylcholinestrase or butyrylcholinesterase (20 µL, 5 IU/mL) and different concentration of the compound solution (30 µL) was pre-incubated for 5 min followed by the addition of the substrate (acetylthiocholine iodide or butyrylthiocholine iodide, 20 µL). […] The measurement of each concentration for each compound was detected in triplicate. GraphPad Prism 6.0 (GraphPad Software, Inc., La Jolla, CA) was used for data processing. The inhibition curve was fitted by plotting percentage enzyme activity (100% for the reference) versus the logarithm of the concentration of tested compound. The half-maximal inhibitory concentration (IC50) values were calculated according to the inhibition curve and the data were shown in the layout of mean ± SEM by GraphPad Prism 6.0.

[3] = biological target: T3, AChE (EC 3.1.1.7) from electric eel (Electrophorus electricus, UniProt O42275); test: biochemical; type: biochemical
T3 construct: purchased Sigma-Aldrich
T3 sequence (O42275 24-633): as the sequence (O42275 24-633) above
Method: as §1, §2

SMILES | kinetic type of AChE inhibition [1] | IC50 [2] | SI (selectivity index = AChE IC50/BChE IC50) ([3]; eeAChE IC50 / eqBChE IC50) | IC50 ([3]; eeAChE, mean ± SEM of triplicate independent experiments, read-out: AChE IC50)
Cc1ccccc1CN1CCC(CNS(=O)(=O)c2ccc3c(c2)n(C)c(=O)n3C)CC1 [Compound 15b, 1,3-dimethyl-N-((1–(2-methylbenzyl)piperidin-4-yl)methyl)-2-oxo-2,3-dihydro-1H-benzo[d]imidazole-5-sulphonamide] | competitive | – | – | –
Cn1c(=O)n(C)c2cc(S(=O)(=O)NCC3CCN(Cc4cccc(Br)c4)CC3)ccc21 [Compound 15j, N-((1–(3-bromobenzyl)piperidin-4-yl)methyl)-1,3-dimethyl-2-oxo-2,3-dihydro-1H-benzo[d]imidazole-5-sulphonamide] | – | 160 ± 40 nM | 2.44 | 390 ± 150 nM
